Measured values from the supplement of paper PMC11061612.

What was measured:
[1] = test system: NCI-H1341 (Small Cell Lung Carcinoma); test: Bliss excess, mean over the matrix (fraction); higher = more synergy
In short: (§1)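 Bliss excess equals the observed combination effect minus the expected value EA + EB − EA·EB, where EA and EB are the effects of each agent alone. Combination Emax is the second-highest inhibition within the matrix. Inhibition was scaled from CellTiter-Glo 2.0 luminescence, with 0 set by vehicle wells and 1 by blank wells, after 72 hours of two-drug dosing of cells plated in 1536-well plates.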

[2] = test system: SKG-IIIa (Cervical Carcinoma); test: as above
In short: as §1

[3] = test system: SUP-M2 (T-Cell Non-Hodgkin's Lymphoma); test: as above
In short: as §1

[4] = test system: DBTRG-05MG (Glioblastoma); test: combination Emax (second highest fraction inhibited in the dose matrix, 72 h); higher = more inhibition; extreme values may be limits of the assay
In short: as §1

[5] = test system: ES6 (Ewing's Sarcoma); test: as above
In short: as §1

[6] = test system: GAK (Melanoma); test: as above
In short: as §1

[7] = test system: IST-MEL1 (Melanoma); test: as above
In short: as §1

[8] = test system: KALS-1 (Glioblastoma); test: as above
In short: as §1

[9] = test system: MM1S (Plasma Cell Myeloma); test: as above
In short: as §1

[10] = test system: MS-1 (Small Cell Lung Carcinoma); test: as above
In short: as §1

[11] = test system: NAMALWA (Burkitt's Lymphoma); test: as above
In short: as §1

[12] = test system: NCI-H1341 (Small Cell Lung Carcinoma); test: as above
In short: as §1

[13] = test system: NCI-H2373 (Mesothelioma); test: as above
In short: as §1

[14] = test system: OAW-28 (Ovarian Carcinoma); test: as above
In short: as §1

[15] = test system: P30-OHK (B-Lymphoblastic Leukemia); test: as above
In short: as §1

[16] = test system: PL4 (Pancreatic Carcinoma); test: as above
In short: as §1

[17] = test system: SK-CO-1 (Colorectal Carcinoma); test: as above
In short: as §1

[18] = test system: SiHa (Cervical Carcinoma); test: as above
In short: as §1

[19] = test system: T47D (Breast Carcinoma); test: as above
In short: as §1

[20] = test system: ZR-75-30 (Breast Carcinoma); test: as above
In short: as §1

SMILES	Bliss excess [1]	Bliss excess [2]	Bliss excess [3]	combination Emax [4]	combination Emax [5]	combination Emax [6]	combination Emax [7]	combination Emax [8]	combination Emax [9]	combination Emax [10]	combination Emax [11]	combination Emax [12]	combination Emax [13]	combination Emax [14]	combination Emax [15]	combination Emax [16]	combination Emax [17]	combination Emax [18]	combination Emax [19]	combination Emax [20]
COc1cccc(OCCCN)c1-c1cc(Nc2cnc(C#N)cn2)n[nH]1 [Prexasertib] + C[C@@H]1COCCN1C2=NC(=NC(=C2)C3(CC3)[S@](=N)(=O)C)C4=C5C=CNC5=NC=C4 [AZD6738] (first compound max 1 µM, 7x7, partner max 10 µM)	-0.0683	0.0363	-0.0061	0.281	0.61	0.753	0.817	0.899	0.877	0.971	0.986	0.912	0.644	0.546	0.981	0.809	0.656	0.445	0.374	0.166
NC1(C(=O)N[C@@H](CCO)c2ccc(Cl)cc2)CCN(c2ncnc3[nH]ccc23)CC1 [Capivasertib] + CC(C)n1c(=O)n(C)c2cnc3cc(F)c(-c4ccc(OCCCN5CCCCC5)nc4)cc3c21 [AZD1390] (first compound max 10 µM, 7x7, partner max 0.3 µM)	-0.0818	-0.104	0.0202	0.243	0.349	0.219	0.359	0.41	0.999	0.307	0.44	0.532	0.545	0.119	0.176	0.24	0.281	0.241	0.37	0.419
Cc1c2c(nn1C)CSCc1cc(n(C)n1)CSc1cc(c3ccccc3c1)OCCCc1c(C(=O)O)n(C)c3c-2c(Cl)ccc13 [AZD5991] + Cc1cc2ncnn2cc1Nc1ncc2c(n1)n(C1CCOCC1)c(=O)n2C [AZD7648] (first compound max 1 µM, 7x7, partner max 10 µM)	0.0192	-0.0261	-0.0146	0.214	0.334	0.305	0.291	0.377	1	0.564	1	0.509	0.409	0.264	0.649	0.386	0.279	0.255	0.475	0.307
